Some test systems named below: NCI-H460 lung; HS 578T breast; MALME-3M melanoma; OVCAR-4 ovarian; UACC-257 melanoma; HCT-15 colon; HCC-2998 colon; HCT-116 colon; TK-10 renal; IGROV1 ovarian.
Assay in all cases: NCI-60 cell line screen, 48 h

For 2 compounds, TGI results are on record in PubChem BioAssay (NCI).

SMILES strings stand for the structures.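 Results reflect a 48-hour exposure of cells in 96-well plates to compound at five concentrations. At the TGI there is no net growth.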

Consider `COc1cc(OC)c(C/C=C/c2ccccc2)cc1O`, for which the TGI with NCI-H460 lung came to 31 µM; with HS 578T breast, 47.3 µM; in the experiment with MALME-3M melanoma, 30.5 µM; in the experiment with OVCAR-4 ovarian it was 33.5 µM; in the experiment on UACC-257 melanoma, 55.6 µM; with HCT-15 colon, 30.1 µM. Further, the TGI is 29.8 µM with HCC-2998 colon, 30 µM with HCT-116 colon, 29.9 µM in the experiment with TK-10 renal and 29.9 µM in the experiment with IGROV1 ovarian.

Take `O=c1cnn(C2OC(CO)C(O)C2O)c(=S)[nH]1` (stereo not given): the TGI in the experiment with NCI-H460 lung is above 41.7 µM; in the experiment on HS 578T breast, above 100 µM; with MALME-3M melanoma, above 100 µM; with OVCAR-4 ovarian it was above 100 µM; in the experiment on UACC-257 melanoma it was above 100 µM; with HCT-15 colon it was above 100 µM. Further, the TGI in the experiment with HCC-2998 colon, with HCT-116 colon, in the experiment with TK-10 renal and in the experiment with IGROV1 ovarian was above 100 µM throughout.
